Columns and labels:
lipoamide = compound: NC(=O)CCCCC1CCSS1 [lipoamide]; experiment: thermal stability z-score vs DMSO; higher = more thermally stabilized by treatment; conditions: HeLa, lipoamide concentration 100 µM
Procedure: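 Cellular thermal proteome profiling in HeLa cells. Cells were treated with 100 µM lipoamide for 1 h, with or without 1 mM arsenate for a further 1 h, then heated to ten temperatures (37-66.3 °C), and soluble protein was quantified by TMT mass spectrometry relative to 0.1% DMSO controls. The thermal stability score (sum of log2 fold changes minus the abundance score) was transformed to a z-score; mean of n = 3 experiments.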

potassium arsenate = compound: O=[As]([O-])(O)O.[K+] [potassium arsenate]; experiment: as above; conditions: HeLa; arsenate concentration 1 mM
Procedure: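 Cellular thermal proteome profiling in HeLa cells treated with 1 mM arsenate for 1 h (DMSO pretreatment), heated to ten temperatures (37-66.3 °C). Soluble protein was quantified by TMT mass spectrometry relative to DMSO controls; the thermal stability score was transformed to a z-score; mean of n = 3 experiments.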

[1] = arsenate co-treatment: 1 mM arsenate 1 h
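Also: each temperature applied for 3 min, abundance score taken as mean log2 fold change at the two lowest temperatures, z-score obtained by mean subtraction and division by SD.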

Sequence of UniProt P29083 (P29083 whole entry): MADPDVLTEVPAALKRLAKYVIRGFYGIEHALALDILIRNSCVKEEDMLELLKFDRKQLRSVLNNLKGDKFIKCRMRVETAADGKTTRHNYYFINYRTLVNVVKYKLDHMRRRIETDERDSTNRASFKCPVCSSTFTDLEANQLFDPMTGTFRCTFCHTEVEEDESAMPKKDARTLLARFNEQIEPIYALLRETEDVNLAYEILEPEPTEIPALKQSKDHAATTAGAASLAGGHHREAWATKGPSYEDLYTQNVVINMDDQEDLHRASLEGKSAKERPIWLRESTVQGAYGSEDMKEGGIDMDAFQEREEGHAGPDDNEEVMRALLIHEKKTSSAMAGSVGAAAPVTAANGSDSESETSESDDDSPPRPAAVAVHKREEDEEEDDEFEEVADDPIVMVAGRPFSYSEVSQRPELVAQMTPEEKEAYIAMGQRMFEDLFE
Sequence of UniProt Q9NXV2 (Q9NXV2 whole entry): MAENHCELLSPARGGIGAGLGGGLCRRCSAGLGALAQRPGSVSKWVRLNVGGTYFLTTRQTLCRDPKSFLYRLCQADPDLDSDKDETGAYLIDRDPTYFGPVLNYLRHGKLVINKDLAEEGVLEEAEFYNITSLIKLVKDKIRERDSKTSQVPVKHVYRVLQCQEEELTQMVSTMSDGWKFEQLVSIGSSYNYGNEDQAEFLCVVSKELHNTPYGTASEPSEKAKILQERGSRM
Sequence of UniProt P49755 (P49755 whole entry): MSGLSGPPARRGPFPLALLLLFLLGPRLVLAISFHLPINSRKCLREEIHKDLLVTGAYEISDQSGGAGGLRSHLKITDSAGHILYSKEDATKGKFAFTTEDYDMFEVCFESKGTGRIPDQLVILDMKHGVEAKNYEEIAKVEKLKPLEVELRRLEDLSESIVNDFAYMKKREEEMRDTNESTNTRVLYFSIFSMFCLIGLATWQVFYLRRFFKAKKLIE
Sequence of UniProt Q96Q15 (Q96Q15 whole entry): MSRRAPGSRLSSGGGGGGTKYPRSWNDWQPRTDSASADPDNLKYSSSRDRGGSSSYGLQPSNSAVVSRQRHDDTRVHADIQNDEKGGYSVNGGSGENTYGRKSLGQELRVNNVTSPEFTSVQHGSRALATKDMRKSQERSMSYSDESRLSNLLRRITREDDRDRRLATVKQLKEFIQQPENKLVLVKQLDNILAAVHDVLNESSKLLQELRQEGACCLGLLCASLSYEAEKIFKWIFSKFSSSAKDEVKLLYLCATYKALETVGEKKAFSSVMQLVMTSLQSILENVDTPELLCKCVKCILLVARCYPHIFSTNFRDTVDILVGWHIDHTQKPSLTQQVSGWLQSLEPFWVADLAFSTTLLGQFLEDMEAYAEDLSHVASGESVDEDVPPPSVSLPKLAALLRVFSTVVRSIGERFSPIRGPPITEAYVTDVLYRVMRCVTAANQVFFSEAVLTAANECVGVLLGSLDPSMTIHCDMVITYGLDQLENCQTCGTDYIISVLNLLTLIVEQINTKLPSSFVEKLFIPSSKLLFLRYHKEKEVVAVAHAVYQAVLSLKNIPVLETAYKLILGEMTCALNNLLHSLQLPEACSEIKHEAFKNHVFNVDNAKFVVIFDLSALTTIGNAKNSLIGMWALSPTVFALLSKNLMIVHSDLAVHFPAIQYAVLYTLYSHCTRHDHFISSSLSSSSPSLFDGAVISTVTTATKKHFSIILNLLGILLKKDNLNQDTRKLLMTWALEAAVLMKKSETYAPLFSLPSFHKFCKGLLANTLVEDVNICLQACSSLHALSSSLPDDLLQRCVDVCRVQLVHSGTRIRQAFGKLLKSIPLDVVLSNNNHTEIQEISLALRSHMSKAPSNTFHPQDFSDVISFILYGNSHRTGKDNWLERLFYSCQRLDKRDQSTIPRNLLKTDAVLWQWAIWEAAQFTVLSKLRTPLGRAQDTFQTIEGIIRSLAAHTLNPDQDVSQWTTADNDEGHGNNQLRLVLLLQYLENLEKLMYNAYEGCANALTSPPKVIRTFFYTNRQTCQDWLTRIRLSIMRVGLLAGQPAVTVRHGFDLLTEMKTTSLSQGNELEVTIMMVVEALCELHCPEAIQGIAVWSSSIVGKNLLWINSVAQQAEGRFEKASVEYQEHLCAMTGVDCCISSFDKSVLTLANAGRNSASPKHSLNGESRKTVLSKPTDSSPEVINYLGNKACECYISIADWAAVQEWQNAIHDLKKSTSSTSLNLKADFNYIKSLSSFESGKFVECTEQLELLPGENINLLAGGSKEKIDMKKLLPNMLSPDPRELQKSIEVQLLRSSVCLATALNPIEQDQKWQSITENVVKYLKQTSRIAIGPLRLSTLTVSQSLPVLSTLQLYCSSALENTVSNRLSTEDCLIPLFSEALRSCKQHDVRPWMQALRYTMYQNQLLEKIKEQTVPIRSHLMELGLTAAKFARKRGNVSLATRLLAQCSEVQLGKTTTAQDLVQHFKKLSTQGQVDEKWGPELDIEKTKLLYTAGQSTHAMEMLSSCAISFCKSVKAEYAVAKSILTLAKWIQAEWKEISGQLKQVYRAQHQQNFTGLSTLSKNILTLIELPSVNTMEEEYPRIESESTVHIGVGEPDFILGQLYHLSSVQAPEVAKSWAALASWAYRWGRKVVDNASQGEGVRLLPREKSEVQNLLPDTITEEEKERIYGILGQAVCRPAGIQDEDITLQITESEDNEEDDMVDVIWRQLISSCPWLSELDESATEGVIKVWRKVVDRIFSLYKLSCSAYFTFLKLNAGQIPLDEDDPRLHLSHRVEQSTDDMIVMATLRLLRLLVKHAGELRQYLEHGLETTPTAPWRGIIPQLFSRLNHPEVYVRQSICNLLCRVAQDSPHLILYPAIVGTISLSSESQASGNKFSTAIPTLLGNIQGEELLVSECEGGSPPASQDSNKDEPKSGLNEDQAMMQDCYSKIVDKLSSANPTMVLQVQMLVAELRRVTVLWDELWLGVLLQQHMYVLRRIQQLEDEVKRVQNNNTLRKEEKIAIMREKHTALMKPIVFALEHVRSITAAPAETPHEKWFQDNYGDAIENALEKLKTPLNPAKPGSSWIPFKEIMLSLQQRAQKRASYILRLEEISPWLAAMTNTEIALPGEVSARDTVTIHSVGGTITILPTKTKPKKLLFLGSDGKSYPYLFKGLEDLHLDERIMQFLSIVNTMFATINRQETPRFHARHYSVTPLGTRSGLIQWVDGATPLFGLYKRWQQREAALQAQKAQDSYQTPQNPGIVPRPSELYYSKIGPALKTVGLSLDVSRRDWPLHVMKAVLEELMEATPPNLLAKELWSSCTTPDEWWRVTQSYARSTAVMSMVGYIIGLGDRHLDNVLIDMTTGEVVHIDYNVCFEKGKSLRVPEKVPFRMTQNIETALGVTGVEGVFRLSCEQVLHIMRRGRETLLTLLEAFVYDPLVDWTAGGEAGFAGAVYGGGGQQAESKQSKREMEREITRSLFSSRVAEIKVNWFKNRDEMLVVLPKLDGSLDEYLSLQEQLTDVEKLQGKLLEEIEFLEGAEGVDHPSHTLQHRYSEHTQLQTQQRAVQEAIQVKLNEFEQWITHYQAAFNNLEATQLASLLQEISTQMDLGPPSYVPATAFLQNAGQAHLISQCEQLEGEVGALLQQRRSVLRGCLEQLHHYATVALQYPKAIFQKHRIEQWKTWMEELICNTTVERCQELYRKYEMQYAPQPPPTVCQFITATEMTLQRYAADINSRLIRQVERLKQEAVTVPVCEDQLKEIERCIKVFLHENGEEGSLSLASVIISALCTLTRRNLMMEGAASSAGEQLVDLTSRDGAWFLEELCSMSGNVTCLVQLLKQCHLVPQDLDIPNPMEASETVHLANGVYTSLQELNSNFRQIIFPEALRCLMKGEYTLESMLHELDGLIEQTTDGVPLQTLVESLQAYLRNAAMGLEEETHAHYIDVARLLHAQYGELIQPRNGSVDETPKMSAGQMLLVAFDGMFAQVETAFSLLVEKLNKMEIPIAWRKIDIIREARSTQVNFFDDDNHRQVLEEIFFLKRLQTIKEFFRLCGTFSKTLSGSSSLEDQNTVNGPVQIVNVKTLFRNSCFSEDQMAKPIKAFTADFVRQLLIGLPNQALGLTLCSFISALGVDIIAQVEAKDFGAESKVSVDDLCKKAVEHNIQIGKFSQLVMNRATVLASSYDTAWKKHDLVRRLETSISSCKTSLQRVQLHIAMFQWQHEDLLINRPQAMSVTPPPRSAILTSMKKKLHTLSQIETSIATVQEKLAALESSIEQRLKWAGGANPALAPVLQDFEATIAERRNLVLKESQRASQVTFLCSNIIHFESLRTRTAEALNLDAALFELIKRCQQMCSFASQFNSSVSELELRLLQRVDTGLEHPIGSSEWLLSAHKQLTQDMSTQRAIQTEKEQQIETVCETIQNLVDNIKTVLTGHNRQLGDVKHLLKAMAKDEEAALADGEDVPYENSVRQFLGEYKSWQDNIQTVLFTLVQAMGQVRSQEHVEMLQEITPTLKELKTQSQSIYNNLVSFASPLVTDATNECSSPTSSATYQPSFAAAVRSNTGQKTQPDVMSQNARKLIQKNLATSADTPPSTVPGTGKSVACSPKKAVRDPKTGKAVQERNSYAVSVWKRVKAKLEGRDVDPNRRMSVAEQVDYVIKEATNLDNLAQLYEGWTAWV
Sequence of UniProt P49840 (P49840 whole entry, looked up): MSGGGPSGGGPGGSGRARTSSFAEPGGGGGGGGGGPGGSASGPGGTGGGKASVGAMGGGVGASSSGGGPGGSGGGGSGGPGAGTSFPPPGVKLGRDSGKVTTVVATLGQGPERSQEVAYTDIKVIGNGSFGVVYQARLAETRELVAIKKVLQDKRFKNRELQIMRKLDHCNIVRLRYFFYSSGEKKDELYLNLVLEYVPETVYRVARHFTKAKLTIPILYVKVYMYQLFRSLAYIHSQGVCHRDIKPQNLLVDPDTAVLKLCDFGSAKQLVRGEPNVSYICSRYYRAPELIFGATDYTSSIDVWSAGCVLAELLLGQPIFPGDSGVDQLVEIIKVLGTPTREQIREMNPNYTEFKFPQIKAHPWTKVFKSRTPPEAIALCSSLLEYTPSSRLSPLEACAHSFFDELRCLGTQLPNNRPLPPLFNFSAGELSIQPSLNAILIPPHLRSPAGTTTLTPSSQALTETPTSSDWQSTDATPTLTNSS

With EXOC2 (UniProt Q96KP1) the thermal stability z-score (lipoamide; [1]) was -0.195, the thermal stability z-score (lipoamide; arsenate co-treatment: none) was -0.453 and the thermal stability z-score (potassium arsenate) was 0.575.

Work on SMC2 (UniProt O95347) yielded a thermal stability z-score (lipoamide; [1]) of 0.528, a thermal stability z-score (lipoamide; arsenate co-treatment: none) of 0.546 and a thermal stability z-score (potassium arsenate) of 0.802.

For SLC38A5 (UniProt Q8WUX1), the thermal stability z-score (lipoamide; [1]) was 0.333, the thermal stability z-score (lipoamide; arsenate co-treatment: none) was -0.181 and the thermal stability z-score (potassium arsenate) was -0.311.

ANKRD27 (UniProt Q96NW4) was tested, and the thermal stability z-score (lipoamide; [1]) was -0.025, the thermal stability z-score (lipoamide; arsenate co-treatment: none) was -0.0854 and the thermal stability z-score (potassium arsenate) was -0.276.

MAP4K3 (UniProt Q8IVH8) showed a thermal stability z-score (lipoamide; [1]) of 0.23, a thermal stability z-score (lipoamide; arsenate co-treatment: none) of -0.0792 and a thermal stability z-score (potassium arsenate) of 0.139.

For POLR2L (UniProt P62875), the thermal stability z-score (lipoamide; [1]) was 1.27, the thermal stability z-score (lipoamide; arsenate co-treatment: none) was 0.782 and the thermal stability z-score (potassium arsenate) was 0.335.

In the case of CD99 (UniProt P14209), the thermal stability z-score (lipoamide; [1]) is reported as 0.901, the thermal stability z-score (lipoamide; arsenate co-treatment: none) is reported as 0.721 and the thermal stability z-score (potassium arsenate) is reported as 0.168.

SMAD2 (UniProt Q15796) gave a thermal stability z-score (lipoamide; [1]) of -0.492, a thermal stability z-score (lipoamide; arsenate co-treatment: none) of 0.118 and a thermal stability z-score (potassium arsenate) of -1.26.

Target AP3S1 (UniProt Q92572) has a thermal stability z-score (lipoamide; [1]) of 0.0661, a thermal stability z-score (lipoamide; arsenate co-treatment: none) of 0.0785 and a thermal stability z-score (potassium arsenate) of 0.131.

CCDC9 (UniProt Q9Y3X0) was tested, and the thermal stability z-score (lipoamide; [1]) was 1.57, the thermal stability z-score (lipoamide; arsenate co-treatment: none) was 1.4 and the thermal stability z-score (potassium arsenate) was -0.162.

Target SMG1 (UniProt Q96Q15) has a thermal stability z-score (lipoamide; [1]) of -0.284, a thermal stability z-score (lipoamide; arsenate co-treatment: none) of -0.117 and a thermal stability z-score (potassium arsenate) of 0.119.

With UXT (UniProt Q9UBK9) the thermal stability z-score (lipoamide; [1]) was 0.497, the thermal stability z-score (lipoamide; arsenate co-treatment: none) was 0.378 and the thermal stability z-score (potassium arsenate) was 0.352.

For NANP (UniProt Q8TBE9), the thermal stability z-score (lipoamide; [1]) was 0.191, the thermal stability z-score (lipoamide; arsenate co-treatment: none) was 0.0578 and the thermal stability z-score (potassium arsenate) was -0.582.

With CD3EAP (UniProt O15446) the thermal stability z-score (lipoamide; [1]) was 0.354, the thermal stability z-score (lipoamide; arsenate co-treatment: none) was -0.286 and the thermal stability z-score (potassium arsenate) was -3.13.

Target RAB5A (UniProt P20339) has a thermal stability z-score (lipoamide; [1]) of -0.751, a thermal stability z-score (lipoamide; arsenate co-treatment: none) of -0.744 and a thermal stability z-score (potassium arsenate) of -0.695.

With MRM1 (UniProt Q6IN84) the thermal stability z-score (lipoamide; [1]) was -0.994, the thermal stability z-score (lipoamide; arsenate co-treatment: none) was -0.349 and the thermal stability z-score (potassium arsenate) was -0.991.

For TM7SF3 (UniProt Q9NS93), the thermal stability z-score (lipoamide; [1]) was -0.0176, the thermal stability z-score (lipoamide; arsenate co-treatment: none) was -0.523 and the thermal stability z-score (potassium arsenate) was 0.533.

For MRPL54 (UniProt Q6P161), the thermal stability z-score (lipoamide; [1]) was -0.648, the thermal stability z-score (lipoamide; arsenate co-treatment: none) was 0.074 and the thermal stability z-score (potassium arsenate) was 0.025.

Work on FOXP4 (UniProt Q8IVH2) yielded a thermal stability z-score (lipoamide; [1]) of -0.605, a thermal stability z-score (lipoamide; arsenate co-treatment: none) of -0.281 and a thermal stability z-score (potassium arsenate) of 0.363.

AK1 (UniProt P00568) was tested, and the thermal stability z-score (lipoamide; [1]) was -0.242, the thermal stability z-score (lipoamide; arsenate co-treatment: none) was 0.28 and the thermal stability z-score (potassium arsenate) was -0.267.

In the case of TCEAL1 (UniProt Q15170), the thermal stability z-score (lipoamide; [1]) is reported as 0.347, the thermal stability z-score (lipoamide; arsenate co-treatment: none) is reported as 0.809 and the thermal stability z-score (potassium arsenate) is reported as 0.192.

Work on PRUNE (UniProt Q86TP1) yielded a thermal stability z-score (lipoamide; [1]) of -0.709, a thermal stability z-score (lipoamide; arsenate co-treatment: none) of -0.433 and a thermal stability z-score (potassium arsenate) of 0.291.

EEF2K (UniProt O00418) was tested, and the thermal stability z-score (lipoamide; [1]) was -0.0522, the thermal stability z-score (lipoamide; arsenate co-treatment: none) was -0.0721 and the thermal stability z-score (potassium arsenate) was -0.0657.

VPS8 (UniProt Q8N3P4) was tested, and the thermal stability z-score (lipoamide; [1]) was -0.0735, the thermal stability z-score (lipoamide; arsenate co-treatment: none) was -0.283 and the thermal stability z-score (potassium arsenate) was -0.17.

With FKBP10 (UniProt Q96AY3) the thermal stability z-score (lipoamide; [1]) was -3.58, the thermal stability z-score (lipoamide; arsenate co-treatment: none) was -2.95 and the thermal stability z-score (potassium arsenate) was 0.321.

For DRAP1 (UniProt Q14919), the thermal stability z-score (lipoamide; [1]) was -0.781, the thermal stability z-score (lipoamide; arsenate co-treatment: none) was -0.122 and the thermal stability z-score (potassium arsenate) was -0.503.

For DDAH1 (UniProt O94760), the thermal stability z-score (lipoamide; [1]) was 0.568, the thermal stability z-score (lipoamide; arsenate co-treatment: none) was 0.134 and the thermal stability z-score (potassium arsenate) was 0.259.

Target POLD3 (UniProt Q15054) has a thermal stability z-score (lipoamide; [1]) of -0.0475, a thermal stability z-score (lipoamide; arsenate co-treatment: none) of 0.44 and a thermal stability z-score (potassium arsenate) of -0.487.

In the case of SMG9 (UniProt Q9H0W8), the thermal stability z-score (lipoamide; [1]) is reported as -0.596, the thermal stability z-score (lipoamide; arsenate co-treatment: none) is reported as -0.49 and the thermal stability z-score (potassium arsenate) is reported as -0.274.

TRAPPC2L (UniProt Q9UL33) was tested, and the thermal stability z-score (lipoamide; [1]) was -0.426, the thermal stability z-score (lipoamide; arsenate co-treatment: none) was 0.338 and the thermal stability z-score (potassium arsenate) was -0.119.

KCTD5 (UniProt Q9NXV2) showed a thermal stability z-score (lipoamide; [1]) of -1.92, a thermal stability z-score (lipoamide; arsenate co-treatment: none) of -1.4 and a thermal stability z-score (potassium arsenate) of -1.43.

Work on ZC3H14 (UniProt Q6PJT7) yielded a thermal stability z-score (lipoamide; [1]) of 0.686, a thermal stability z-score (lipoamide; arsenate co-treatment: none) of -0.0584 and a thermal stability z-score (potassium arsenate) of -5.55.

TMED10 (UniProt P49755) gave a thermal stability z-score (lipoamide; [1]) of -1.53, a thermal stability z-score (lipoamide; arsenate co-treatment: none) of -1.03 and a thermal stability z-score (potassium arsenate) of 0.275.

Work on PFKFB3 (UniProt Q16875) yielded a thermal stability z-score (lipoamide; [1]) of -0.179, a thermal stability z-score (lipoamide; arsenate co-treatment: none) of -0.149 and a thermal stability z-score (potassium arsenate) of 0.00649.

VIPAS39 (UniProt Q9H9C1) showed a thermal stability z-score (lipoamide; [1]) of -0.0571, a thermal stability z-score (lipoamide; arsenate co-treatment: none) of 0.338 and a thermal stability z-score (potassium arsenate) of 0.358.

DDA1 (UniProt Q9BW61) was tested, and the thermal stability z-score (lipoamide; [1]) was 0.456, the thermal stability z-score (lipoamide; arsenate co-treatment: none) was -0.211 and the thermal stability z-score (potassium arsenate) was 0.665.

HAUS8 (UniProt Q9BT25) showed a thermal stability z-score (lipoamide; [1]) of 0.268, a thermal stability z-score (lipoamide; arsenate co-treatment: none) of 0.632 and a thermal stability z-score (potassium arsenate) of 1.71.

In the case of GOPC (UniProt Q9HD26), the thermal stability z-score (lipoamide; [1]) is reported as -0.587, the thermal stability z-score (lipoamide; arsenate co-treatment: none) is reported as 0.0054 and the thermal stability z-score (potassium arsenate) is reported as 0.591.

Work on STXBP4 (UniProt Q6ZWJ1) yielded a thermal stability z-score (lipoamide; [1]) of -0.119, a thermal stability z-score (lipoamide; arsenate co-treatment: none) of 0.0111 and a thermal stability z-score (potassium arsenate) of -0.111.

Work on GSK3A (UniProt P49840) yielded a thermal stability z-score (lipoamide; [1]) of -0.401, a thermal stability z-score (lipoamide; arsenate co-treatment: none) of -0.28 and a thermal stability z-score (potassium arsenate) of -0.881.

With MOV10 (UniProt Q9HCE1) the thermal stability z-score (lipoamide; [1]) was -0.0627, the thermal stability z-score (lipoamide; arsenate co-treatment: none) was 0.31 and the thermal stability z-score (potassium arsenate) was -0.16.

NR3C1 (UniProt P04150) showed a thermal stability z-score (lipoamide; [1]) of -0.273, a thermal stability z-score (lipoamide; arsenate co-treatment: none) of -0.664 and a thermal stability z-score (potassium arsenate) of -0.462.

RABL2A|RABL2B was tested, and the thermal stability z-score (lipoamide; [1]) was 0.0788, the thermal stability z-score (lipoamide; arsenate co-treatment: none) was -0.011 and the thermal stability z-score (potassium arsenate) was -0.151.

Target SKP2 (UniProt Q13309) has a thermal stability z-score (lipoamide; [1]) of -0.219, a thermal stability z-score (lipoamide; arsenate co-treatment: none) of -0.122 and a thermal stability z-score (potassium arsenate) of -0.872.

With SHQ1 (UniProt Q6PI26) the thermal stability z-score (lipoamide; [1]) was -0.105, the thermal stability z-score (lipoamide; arsenate co-treatment: none) was 0.0326 and the thermal stability z-score (potassium arsenate) was 0.000909.

Target SLC39A10 (UniProt Q9ULF5) has a thermal stability z-score (lipoamide; [1]) of 0.0305, a thermal stability z-score (lipoamide; arsenate co-treatment: none) of -0.329 and a thermal stability z-score (potassium arsenate) of 0.177.

FAU (UniProt P62861) showed a thermal stability z-score (lipoamide; [1]) of 1.7, a thermal stability z-score (lipoamide; arsenate co-treatment: none) of 1.21 and a thermal stability z-score (potassium arsenate) of 1.15.

Work on GDAP2 (UniProt Q9NXN4) yielded a thermal stability z-score (lipoamide; [1]) of -0.0509, a thermal stability z-score (lipoamide; arsenate co-treatment: none) of -0.305 and a thermal stability z-score (potassium arsenate) of -0.255.

RPS27A (UniProt P62979) was tested, and the thermal stability z-score (lipoamide; [1]) was 0.106, the thermal stability z-score (lipoamide; arsenate co-treatment: none) was -0.431 and the thermal stability z-score (potassium arsenate) was -1.18.

SYNJ1 (UniProt O43426) was tested, and the thermal stability z-score (lipoamide; [1]) was 0.305, the thermal stability z-score (lipoamide; arsenate co-treatment: none) was -0.14 and the thermal stability z-score (potassium arsenate) was -0.277.

Work on GINS2 (UniProt Q9Y248) yielded a thermal stability z-score (lipoamide; [1]) of -0.0167, a thermal stability z-score (lipoamide; arsenate co-treatment: none) of 0.00771 and a thermal stability z-score (potassium arsenate) of 0.0793.

Target GTF2E1 (UniProt P29083) has a thermal stability z-score (lipoamide; [1]) of -0.0787, a thermal stability z-score (lipoamide; arsenate co-treatment: none) of 0.126 and a thermal stability z-score (potassium arsenate) of 0.733.

NHP2 (UniProt Q9NX24) was tested, and the thermal stability z-score (lipoamide; [1]) was -0.434, the thermal stability z-score (lipoamide; arsenate co-treatment: none) was -0.739 and the thermal stability z-score (potassium arsenate) was -0.721.

With MED7 (UniProt O43513) the thermal stability z-score (lipoamide; [1]) was -0.0337, the thermal stability z-score (lipoamide; arsenate co-treatment: none) was -0.104 and the thermal stability z-score (potassium arsenate) was -0.328.

For PIGA (UniProt P37287), the thermal stability z-score (lipoamide; [1]) was 0.843, the thermal stability z-score (lipoamide; arsenate co-treatment: none) was 0.283 and the thermal stability z-score (potassium arsenate) was 0.147.
